For data set [1], the target named is T1, PAR-2 (Homo sapiens, UniProt P55085).
T1 sequence (P55085 26-397): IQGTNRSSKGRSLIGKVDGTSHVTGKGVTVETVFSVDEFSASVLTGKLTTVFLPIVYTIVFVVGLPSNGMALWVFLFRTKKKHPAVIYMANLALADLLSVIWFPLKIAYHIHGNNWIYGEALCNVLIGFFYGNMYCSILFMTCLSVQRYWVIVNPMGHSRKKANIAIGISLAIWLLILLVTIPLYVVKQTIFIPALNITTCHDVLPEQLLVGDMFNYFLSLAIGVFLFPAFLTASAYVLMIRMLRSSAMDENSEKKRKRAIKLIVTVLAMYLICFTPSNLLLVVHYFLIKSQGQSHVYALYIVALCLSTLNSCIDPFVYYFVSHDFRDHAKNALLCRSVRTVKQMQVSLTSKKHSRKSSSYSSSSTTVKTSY
As to the kind of experiment: Calcium immobilization assay (Calcium-4 assay kit). Type of data set: cell-based. The following applies: HCT-15 cells over-expressing PAR-2; activating peptide (AP) as PAR-2 activating agent; inhibitor treated for 5 minutes before AP. As to the method: In order to evaluate inhibitory activity of the synthesized materials against the PAR-2, primarily, an assay system in which a concentration of calcium ions in cell may be measured in real time was constructed, and evaluation was conducted using this system. The PAR-2 is a kind of G-protein coupled receptors (GPCR), and when the PAR-2 is activated in cell, phospholipase C-b (PLC-b) decomposes phosphatidylinositol 4,5-bisphosphate (PIP2) into inositol triphosphate (IP3) and diacyl glycerol (DAG) while being activated. IP3 generated at this time stimulates secretion of calcium ions in endoplasmic reticulum (ER), which is a storage of calcium ions in a cell, such that the concentration of calcium ions in the cell is increased. Based on an existing study result, an in vitro screening assay system capable of detecting a material capable of suppressing the concentration of calcium ions in the cell from being increased by activation of PAR-2 was constructed. As a PAR-2 activating agent, activating peptide (AP) was used, and as a reagent for detecting the concentration of calcium ion in the cell, a Calcium-4 assay kit produced (Molecular Probe). […]
The inhibitory activity of the synthesized materials against the PAR-2 was evaluated using the protocol as described above, and profiles of the assay for Compounds 45 and 73 prepared in Examples 1 and 2 were shown in FIGS. 1 and 2.

Another data set in a line: Cytotoxicity (CC50). Type of data set: cell-based.
Data set [2] has as its target T1, PAR-2. As to the kind of experiment: PathHunter β-arrestin GPCR assay. Type of data set: cell-based. The arrangement: purchased DiscoveRx Corp. The following applies: β-arrestin accumulation; SKIGKV-NH2 (10 μM); samples 1000 to 50 μM. Here is the method:
An in vitro assay protocol capable of detecting activation of the PAR-2 was additionally introduced in addition to a calcium immobilization assay to measure the activity of the selected materials. First, the PAR-2 inhibitory activities of two kinds of samples were measured using a PathHunter™ β-arrestin GPCR assay kit (DiscoveRx Corp.) capable of detecting accumulation of β-arrestin, which is an intracellular reaction firstly generated by the activation of the PAR-2. Experiments were conducted by diluting concentrations of the samples by one-half, ranging from 1000 to 50 μM and SKIGKV-NH2 (10 μM) was treated with the PAR-2 […]. As an experimental result, suppression of β-arrestin was confirmed in both of the two kinds of samples at a concentration of 500 μM. As a measurement result, it was observed that IC50 values were different from those in calcium immobilization assay (See Table 1).

Data set [3] deals with T1, PAR-2. As to the kind of experiment: Confocal microscopy of PAR-2 activation in KNRK-PAR-2 cell line. Type of data set: cell-based. The following applies: KNRK-PAR-2 cells; [trypsin]=11 μM, [SLIGKV]=100 μM, [Compound 45]=200 μM. Here is the method:
In order to visually confirm the activation of the PAR-2, a cell line having the following structure was prepared based on existing references, and activation of the PAR-2 was observed using a confocal microscope. As the cell line, Kirsten Murine Sarcoma Virus transformed rat kidney epithelial cell (KNRK cell) was used. In this cell line, the PAR-2 may not be expressed in a normal state. Each of the N-terminals of […] were tagged with Flag epitope, and each of the C-terminals were tagged with Myc epitope, such that a stable transfected cell was constructed. […] In a state in which the PAR-2 was not activated, Flag and Myc were double stained, such that a yellow image was shown in a merged image. However, in the case in which the PAR-2 was activated, a red image was shown while the Flag is separated.

Data set [4] has as its system oxazolone induced chronic dermatitis. As to the kind of experiment: Oxazolone induced chronic dermatitis animal model. Type of data set: in vivo, hairless mouse (SKH-1). The following applies: hairless mice, applied once a day for 3 days. Here is the method: Effects of the selected materials were evaluated using chronic dermatitis animal model. Oxazolone induced chronic dermatitis animal model by continuously applying oxazolone, which is a kind of hapten, to a hairless mouse was used. It was reported that various symptoms of atopic dermatitis relatively accurately appear in recently developed oxazolone model, and the present inventors also confirmed through the prior study that various symptoms of general atopic dermatitis appear similarly to clinically appearing symptoms. In order to construct the chronic dermatitis animal model, 5% oxazolone was applied and sensitized to the hairless mice (SKH-1, 6 weeks old). After 1 week, 0.1% oxazolone was applied every other day for 2 weeks, thereby induced the symptoms of dermatitis. After samples were applied to the dermatitis induced animal once a day for 3 days, changes in various skin functions and a skin thickness were observed. Finally, biopsy was performed on skin tissue, and histological observation was conducted. As a positive control group used in the experiment, 0.05% desonide formulation, which is a steroid having relatively weak potency, was used, and changes in trans-epidermal water loss (TEWL) skin hydration in stratum cornea, and skin thickness were observed.

On to `Cc1nc2ccc(C(=O)N3CCN(C(=O)C4CCCCC4)CC3)cn2c1-c1ccccc1` [Compound 73, (4-(cyclohexanecarbonyl)piperazin-1-yl)(2-methyl-3-phenylimidazo[1,2-a]pyridin-6-yl)methanone], for which the figures for the IC50 on PAR-2 [1] and against PAR-2 [2] were 76.7 µM and 401 µM, respectively. This compound also displayed a CC50 in “Cytotoxicity (CC50)” of over 100 µM.
In the case of `Cc1cccc(-c2c(C)nc3ccc(C(=O)N4CCCCC4)cn23)c1` [Compound 45], the IC50 at PAR-2 [1] was found to be 73.8 µM; against PAR-2 [2], 339 µM. In the data set “Cytotoxicity (CC50)”, this compound registered a CC50 of over 100 µM. In addition, on PAR-2 [3], the “activation of the PAR-2 (Flag/Myc double staining, merged image)” value is “activation of the PAR-2 was suppressed”. Besides, in data set [4] (FIG. 5), the “trans-epidermal water loss (TEWL)” value is given as “effectively restore”. The “skin hydration in stratum cornea” value in data set [4] (FIG. 6) is “effectively restore”. Further, the skin thickness result in data set [4] (FIG. 7) was “statistically significant improvement effect”.

The values above are taken from patent US20130165652A1, “NOVEL HETEROCYCLIC COMPOUND, AND COMPOSITION FOR TREATING INFLAMMATORY DISEASES USING SAME” (NEOPHARM CO.,LTD., priority 2010, published 2013).
